Source: patent US9115380B2, “Kits and methods for generating 5′ capped RNA” (priority 2006, dated 2015)
Values joined by “and” are separate entries in the source; they are usually repeats but may differ in a detail not shown here. Identical values can stand only once. “Also recorded” adds a separate entry of the source. Like-named read-outs stand apart in the source and are kept apart here.

Experiments:
vaccinia capping enzyme = vaccinia capping enzyme (Vaccinia virus, UniProt P04298); assay type: biochemical
[1] = biological target: RNA guanyltransferase activity of the vaccinia capping enzyme system (Vaccinia virus, UniProt P04298); details: cited from earlier work
[2] = biological target: vaccinia capping enzyme (guanine 7-methyltransferase activity) (Vaccinia virus, UniProt P04298); assay type: biochemical
wheat germ lysate = assay type: biochemical
[3] = biological target: vaccinia mRNA (nucleoside-2′-O—) methyltransferase (Vaccinia virus, UniProt P07617); assay type: biochemical
[4] = system: tobacco acid pyrophosphatase (TAP); assay type: biochemical
[5] = system: rabbit reticulocyte lysate; assay type: biochemical
BDCM cells = assay type: cell-based; details: poly(A)-tailed Renilla luciferase RNA
[6] = rabbit reticulocyte lysate, poly(A)-tailed Renilla luciferase RNA, cap 0 structure, GTP-capped cap 0 RNA = 100%
[7] = rabbit reticulocyte lysate, poly(A)-tailed Renilla luciferase RNA, cap I structure
[8] = rabbit reticulocyte lysate, poly(A)-tailed firefly luciferase RNA, cap I structure
[9] = wheat germ lysate, poly(A)-tailed Renilla luciferase RNA, cap 0 structure, GTP-capped cap 0 RNA = 100%
[10] = wheat germ lysate, poly(A)-tailed Renilla luciferase RNA, cap I structure
[11] = cap 0 structure, GTP-capped cap 0 RNA = 100%
[12] = cap I structure, GTP-capped RNA = 100%

## Nc1nc2c(ccn2[C@@H]2O[C@H](COP(=O)(O)OP(=O)(O)OP(=O)(O)O)[C@@H](O)[C@H]2O)c(=O)[nH]1 [7-deaza-GTP, reference compound]
Vaccinia capping enzyme
  substrate for the capping enzyme system (51-base primary RNA transcript converted into 52-base capped RNA): not substrates for the capping enzyme system

## Nc1nc2c(ncn2[C@@H]2O[C@H](COP(=O)(O)OP(=O)(O)O)[C@@H](O)[C@H]2O)c(=O)[nH]1 [GDP]
[1]
  use in place of GTP in an in vitro capping reaction: could not be used in place of GTP

## Cn1c(N)nc2c(ncn2[C@@H]2O[C@H](COP(=O)(O)OP(=O)(O)OP(=O)(O)O)[C@@H](O)[C@H]2O)c1=O [N^1-methyl-GTP, N^1-methylguanosine-5′-triphosphate]
Vaccinia capping enzyme
  conversion of 51-base primary RNA transcript to 52-base capped RNA (in words): quantitatively converted
  substrate for the capping enzyme system (51-base primary RNA transcript converted into 52-base capped RNA): substrates for the capping enzyme system
[2]
  methylation of the N^7 position of the cap nucleotide (radioactive methyl group in 52-base band): did not contain any radioactivity
Wheat germ lysate
  relative translation efficiency: 31%

## Nc1ncnc2c1ncn2[C@@H]1O[C@H](COP(=O)(O)OP(=O)(O)OP(=O)(O)O)[C@@H](O)[C@H]1O [ATP, reference compound]
Vaccinia capping enzyme
  substrate for the capping enzyme system (51-base primary RNA transcript converted into 52-base capped RNA): not substrates for the capping enzyme system
[1]
  use in place of GTP in an in vitro capping reaction: could not be used in place of GTP

## Nc1ccn([C@@H]2O[C@H](COP(=O)(O)OP(=O)(O)OP(=O)(O)O)[C@@H](O)[C@H]2O)c(=O)n1 [CTP]
[1]
  use in place of GTP in an in vitro capping reaction: could not be used in place of GTP

## Nc1nc2c(ncn2[C@@H]2O[C@H](COP(=O)(O)OP(=O)(O)OP(=O)(O)O)[C@@H](O)[C@H]2F)c(=O)[nH]1 [2′-F-dGTP, 2′-fluoro-2′-deoxyguanosine-5′-triphosphate]
[3]
  methylation of the 2′-hydroxyl of the 5′-penultimate nucleotide by mRNA (nucleoside-2′-O—) methyltransferase: 52-base radioactive band was observed
[4]; capped RNA prepared per Method 6 except in the absence of S-adenosyl-L-methionine
  removal of the cap nucleotide by tobacco acid pyrophosphatase (51-base band on PAGE): 51-base band was observed
[5]; [6]
  average relative translation efficiency: 55%
[5]; [7]
  average relative translation efficiency: 107%
[5]; [8]
  average relative translation efficiency: 133%
Wheat germ lysate; [9]
  relative translation efficiency: 53%
Wheat germ lysate; [10]
  relative translation efficiency: 61%

## Nc1nc2c(ncn2[C@H]2CC[C@@H](COP(=O)(O)OP(=O)(O)OP(=O)(O)O)O2)c(=O)[nH]1 [2′,3′-ddGTP, 2′,3′-dideoxy-GTP, reference compound]
Vaccinia capping enzyme
  substrate for the capping enzyme system (51-base primary RNA transcript converted into 52-base capped RNA): not substrates for the capping enzyme system; also recorded: not a substrate for the capping enzyme system

## COc1nc(N)nc2c1ncn2[C@@H]1O[C@H](COP(=O)(O)OP(=O)(O)OP(=O)(O)O)[C@@H](O)[C@H]1O [O^6-methyl-GTP, O^6-methylguanosine-5′-triphosphate]
Vaccinia capping enzyme
  51-base primary RNA transcript converted into 52-base capped RNA: approximately 70%
  substrate for the capping enzyme system (51-base primary RNA transcript converted into 52-base capped RNA): substrates for the capping enzyme system
[2]
  conversion of 51-base primary RNA transcript into 52-base capped RNA (in words): quantitatively converted
  methylation of the N^7 position of the cap nucleotide (radioactive methyl group in 52-base band): catalyzed formation of N^7-methylated capped RNA
BDCM cells; [11]
  relative translation efficiency: 115%
BDCM cells; [12]
  relative translation efficiency: 117%
[5]; [6]
  average relative translation efficiency: 167%
[5]; [7]
  average relative translation efficiency: 122%
[5]; [8]
  average relative translation efficiency: 97%
Wheat germ lysate; [9]
  relative translation efficiency: 80%
Wheat germ lysate; [10]
  relative translation efficiency: 59%

## Nc1nc2c(ncn2[C@@H]2O[C@H](COP(=O)(O)OP(=O)(O)OP(=O)(O)O)C[C@H]2O)c(=O)[nH]1 [3′-dGTP, 3′-deoxyguanosine-5′-triphosphate]
[5]; [6]
  average relative translation efficiency: 80%
[5]; [7]
  average relative translation efficiency: 64%
[5]; [8]
  average relative translation efficiency: 98%
Wheat germ lysate; [10]
  relative translation efficiency: 31%

## Cn1c[n+]([C@@H]2O[C@H](COP(=O)(O)OP(=O)([O-])OP(=O)(O)O)[C@@H](O)[C@H]2O)c2nc(N)[nH]c(=O)c21 [N^7-methyl-GTP, reference compound]
Vaccinia capping enzyme
  substrate for the capping enzyme system (51-base primary RNA transcript converted into 52-base capped RNA): not substrates for the capping enzyme system
[1]
  use in place of GTP in an in vitro capping reaction: could not be used in place of GTP

## Nc1nc2c(ncn2[C@@H]2O[C@H](COP(=O)(O)O)[C@@H](O)[C@H]2O)c(=O)[nH]1 [GMP]
[1]
  use in place of GTP in an in vitro capping reaction: could not be used in place of GTP

## Nc1nc2c(ncn2[C@H]2C[C@H](N)[C@@H](COP(=O)(O)OP(=O)(O)OP(=O)(O)O)O2)c(=O)[nH]1 [3′-amino-2′,3′-ddGTP, 3′-amino-2′,3′-dideoxyguanosine-5′-triphosphate]
Vaccinia capping enzyme
  substrate for the capping enzyme system (51-base primary RNA transcript converted into 52-base capped RNA): substrates for the capping enzyme system

## [N-]=[N+]=N[C@H]1C[C@H](n2cnc3c(=O)[nH]c(N)nc32)O[C@@H]1COP(=O)(O)OP(=O)(O)OP(=O)(O)O [3′-azido-2′,3′-ddGTP, 3′-azido-2′,3′-dideoxyguanosine-5′-triphosphate]
Vaccinia capping enzyme
  substrate for the capping enzyme system (51-base primary RNA transcript converted into 52-base capped RNA): substrates for the capping enzyme system

## CO[C@H]1[C@@H](O)[C@H]([n+]2cn(C)c3c(=O)[nH]c(N)nc32)O[C@@H]1COP(=O)([O-])OP(=O)(O)OP(=O)(O)OC[C@H]1O[C@@H](n2cnc3c(=O)[nH]c(N)nc32)[C@H](O)[C@@H]1O [m2^7,3′-OGpppG, reference compound]
BDCM cells; [11]
  relative translation efficiency: 130%
BDCM cells; [12]
  relative translation efficiency: 102%

## [N-]=[N+]=N[C@@H]1[C@H](O)[C@@H](COP(=O)(O)OP(=O)(O)OP(=O)(O)O)O[C@H]1n1cnc2c(=O)[nH]c(N)nc21 [2′-azido-dGTP, 2′-azido-2′-deoxyguanosine-5′-triphosphate]
[3]
  methylation of the 2′-hydroxyl of the 5′-penultimate nucleotide by mRNA (nucleoside-2′-O—) methyltransferase: 52-base radioactive band was observed
[5]; [6]
  average relative translation efficiency: 99%
[5]; [7]
  average relative translation efficiency: 79%
[5]; [8]
  average relative translation efficiency: 107%
Wheat germ lysate; [9]
  relative translation efficiency: 41%
Wheat germ lysate; [10]
  relative translation efficiency: 42%

## O=c1ccn([C@@H]2O[C@H](COP(=O)(O)OP(=O)(O)OP(=O)(O)O)[C@@H](O)[C@H]2O)c(=O)[nH]1 [UTP]
[1]
  use in place of GTP in an in vitro capping reaction: could not be used in place of GTP

## CO[C@H]1[C@@H](O)[C@H](n2cnc3c(=O)[nH]c(N)nc32)O[C@@H]1COP(=O)(O)OP(=O)(O)OP(=O)(O)O [3′-OMe-GTP, 3′-O-methylguanosine-5′-triphosphate]
Vaccinia capping enzyme
  conversion of 51-base primary RNA transcript to 52-base capped RNA (in words): quantitatively converted
[3]
  methylation of the 2′-hydroxyl of the 5′-penultimate nucleotide by mRNA (nucleoside-2′-O—) methyltransferase: 52-base radioactive band was observed
[4]; capped RNA prepared per Method 6
  removal of the cap nucleotide by tobacco acid pyrophosphatase (51-base band on PAGE): 51-base band was observed
[5]; [6]
  average relative translation efficiency: 82%
[5]; [7]
  average relative translation efficiency: 84%
[5]; [8]
  average relative translation efficiency: 137%
Wheat germ lysate; [9]
  relative translation efficiency: 39%
Wheat germ lysate; [10]
  relative translation efficiency: 43%

## O=c1[nH]cnc2c1ncn2[C@@H]1O[C@H](COP(=O)(O)OP(=O)(O)OP(=O)(O)O)[C@@H](O)[C@H]1O [ITP]
[1]
  use in place of GTP in an in vitro capping reaction: could not be used in place of GTP

## CO[C@@H]1[C@H](O)[C@@H](COP(=O)(O)OP(=O)(O)OP(=O)(O)O)O[C@H]1n1cnc2c(=O)[nH]c(N)nc21 [2′-OMe-GTP, 2′-O-methylguanosine-5′-triphosphate]
[3]
  methylation of the 2′-hydroxyl of the 5′-penultimate nucleotide by mRNA (nucleoside-2′-O—) methyltransferase: 52-base radioactive band was observed
[4]
  removal of the cap nucleotide by tobacco acid pyrophosphatase (51-base band on PAGE): 51-base band was observed
[5]
  average relative translation efficiency: 132% and 97% and 170%
Wheat germ lysate
  relative translation efficiency: 36% and 47%
